Data as given in paper PMC6325200, “Effects of Microplate Type and Broth Additives on Microdilution MIC Susceptibility Assays” (Antimicrobial Agents and Chemotherapy, 2018).
Converted amounts (≈) assume the structure as drawn. Where two headings read alike, the source gives them in different places.

Experiments:
MRSA ATCC 43300 = system: MRSA ATCC 43300
Method: (§1) A positive control of a row of just the bacteria and a negative control of only the medium were included for every plate tested.
(§2) The compounds along with standard antibiotics were serially diluted 2-fold across the 96-well plates. […] A sample of each culture was then diluted 40-fold in fresh MH broth (in presence and absence of Tween) and incubated at 37°C for 2 to 3 h.
For experiments in the presence of surfactant, 2% beractant (25 mg/ml) was added to the mid-log-phase cultures and mixed gently and added to all the 96-well plates. For experiments in the presence of serum, a mixture of 50% of human serum along with 50% MHB was prepared and used throughout the experiment.

S. pneumoniae ATCC 33440 = experiment: microbe, parasite or virus in culture; settings: n = 2
Method: as §1, §2

E. faecalis ATCC 29212 = experiment: microbe, parasite or virus in culture; settings: n = 2
Method: as §1, §2

[1] = system: S. aureus GISA NRS 2; ATCC 700698; experiment: microbe, parasite or virus in culture; settings: n = 2
Method: as §1, §2

[2] = system: S. pneumoniae ATCC 700677 (MDR); experiment: microbe, parasite or virus in culture; settings: n = 2
Method: as §1, §2

[3] = system: MSSA S. aureus ATCC 25923; experiment: microbe, parasite or virus in culture; settings: n = 2
Method: as §1, §2

S. pyogenes ATCC 12344 = settings: n = 2
Method: as §1, §2

MRSA = settings: literature value; cited from earlier work
Source text: TABLE 1 Literature MIC values for tested antibiotics | column: MIC (µg/ml) (reference[s]) / MRSA

[4] = cited from earlier work
Source text: Other assay additives can affect MIC values. […] This in turn translates into reduced ...

[5] = cited from earlier work; remark: listed apart in the source
Source text: Other assay additives can affect MIC values. […] Plasma protein binding has been implicated as a major factor limiting the active free concentration of many clinically important antibiotics ([37][–][42]).

[6] = cited from earlier work; for concentration found, % of that expected: PS microtiter plates, [14C]oritavancin
Method: The majority of antibiotic stock solutions for testing are prepared in water, phosphate buffer, or pH-adjusted aqueous solution (106 out of 139 reported in CLSI M100 [see Table 6A, “Solvents and diluents for preparation of stock solutions of antimicrobial agents”]) ([3]). […] Furthermore, the CLSI reference MIC quality control range tabulated for dalbavancin an ...

CCCCCCCCCCNCCN[C@@]1(C)C[C@H](O[C@H]2[C@H](Oc3c4cc5cc3Oc3ccc(cc3Cl)[C@@H](O)[C@@H](NC(=O)[C@@H](CC(C)C)NC)C(=O)N[C@@H](CC(N)=O)C(=O)N[C@H]5C(=O)N[C@H]3C(=O)N[C@H](C(=O)N[C@H](C(=O)O)c5cc(O)c(CNCP(=O)(O)O)c(O)c5-c5cc3ccc5O)[C@H](O)c3ccc(c(Cl)c3)O4)O[C@H](CO)[C@@H](O)[C@@H]2O)O[C@@H](C)[C@H]1O [Telavancin, telavancin] gave an MIC (MRSA ATCC 43300; Corning NBS, MH + 2% LHB, 2% LS, n = 2) of 0.125 µg/mL, an MIC (MRSA ATCC 43300; Corning NBS, MH + 2% LHB, 50% HS, n = 2) of 0.25 µg/mL and an MIC (MRSA ATCC 43300; Corning NBS, MH + 2% LHB, no additive, n = 2) of 0.06 to 0.125 µg/mL. It also gave an MIC (MRSA ATCC 43300; Corning NBS, MH + T80, 2% LS, n = 2) of 0.06 to 0.125 µg/mL, an MIC (MRSA ATCC 43300; Corning NBS, MH + T80, 50% HS, n = 2) of 0.25 µg/mL and an MIC (MRSA ATCC 43300; Corning NBS, MH, 2% LS, n = 2) of 0.125 µg/mL (≈ 0.0712 µM). The MIC (MRSA ATCC 43300; Corning NBS, MH, 50% HS, n = 2) was 0.25 µg/mL (≈ 0.142 µM), the MIC (MRSA ATCC 43300; Corning PS, MH + 2% LHB, 2% LS, n = 2) was 0.125 µg/mL and the MIC (MRSA ATCC 43300; Corning PS, MH + 2% LHB, 50% HS, n = 2) was 0.125 to 0.25 µg/mL. The MIC (MRSA ATCC 43300; Corning PS, MH + 2% LHB, no additive, n = 2) was 0.06 µg/mL, the MIC (MRSA ATCC 43300; Corning PS, MH + T80, 2% LS, n = 2) was 0.06 to 0.25 µg/mL and the MIC (MRSA ATCC 43300; Corning PS, MH + T80, 50% HS, n = 2) was 0.25 µg/mL. It also gave an MIC (MRSA ATCC 43300; Corning PS, MH, 2% LS, n = 2) of 0.03 to 0.125 µg/mL, an MIC (MRSA ATCC 43300; Corning PS, MH, 50% HS, n = 2) of 0.125 to 0.25 µg/mL and an MIC (MRSA ATCC 43300; Corning TC, MH + 2% LHB, 2% LS, n = 2) of 0.25 to 1 µg/mL. The MIC (MRSA ATCC 43300; Corning TC, MH + 2% LHB, 50% HS, n = 2) was 2 to 8 µg/mL, the MIC (MRSA ATCC 43300; Corning TC, MH + 2% LHB, no additive, n = 2) was 0.125 µg/mL and the MIC (MRSA ATCC 43300; Corning TC, MH + T80, 2% LS, n = 2) was 0.125 to 0.25 µg/mL. The MIC (MRSA ATCC 43300; Corning TC, MH + T80, 50% HS, n = 2) was 0.25 to 1 µg/mL, the MIC (MRSA ATCC 43300; Corning TC, MH, 2% LS, n = 2) was 0.25 to 0.5 µg/mL and the MIC (MRSA ATCC 43300; Corning TC, MH, 50% HS, n = 2) was 0.5 to 1 µg/mL. For the same compound, the MIC (MRSA ATCC 43300; Corning flat NBS plate, MHB +0.002% T80, no further additive, n = 2) was 0.125 µg/mL (≈ 0.0712 µM), the MIC (MRSA ATCC 43300; Corning flat NBS plate, MHB −T80, no additive, n = 2) was 0.03 to 0.06 µg/mL and the MIC (MRSA ATCC 43300; Corning flat PS plate, MHB +0.002% T80, no further additive, n = 2) was 0.03 to 0.06 µg/mL. The MIC (MRSA ATCC 43300; Corning flat PS plate, MHB −T80, no additive, n = 2) was 0.06 µg/mL (≈ 0.0342 µM), the MIC (MRSA ATCC 43300; Corning flat TC plate, MHB +0.002% T80, no further additive, n = 2) was 0.125 to 0.25 µg/mL and the MIC (MRSA ATCC 43300; Corning flat TC plate, MHB −T80, no additive, n = 2) was 1 µg/mL (≈ 0.57 µM). It also gave an MIC (MRSA ATCC 43300; Nunc U TC plate, MHB +0.002% T80, n = 2) of 0.25 to 0.5 µg/mL, an MIC (MRSA ATCC 43300; Nunc U TC plate, MHB −T80, n = 2) of 0.5 µg/mL (≈ 0.285 µM) and an MIC (MRSA ATCC 43300; Nunc flat PS plate, MHB +0.002% T80, n = 2) of 0.06 µg/mL (≈ 0.0342 µM). It also gave an MIC (MRSA ATCC 43300; Nunc flat PS plate, MHB −T80, n = 2) of 0.06 µg/mL (≈ 0.0342 µM), an MIC (MRSA ATCC 43300; Nunc flat TC plate, MHB +0.002% T80, n = 2) of 0.125 to 0.25 µg/mL and an MIC (MRSA ATCC 43300; Nunc flat TC plate, MHB −T80, n = 2) of 0.5 to 1 µg/mL. For the same compound, the “MIC” value (MRSA ATCC 43300; TC plates without additive) was 0.5 to 1 µg/mL, the MIC (MRSA ATCC 43300; Trek PS, MH + 2% LHB, 2% LS, n = 2) was 0.06 to 0.25 µg/mL and the MIC (MRSA ATCC 43300; Trek PS, MH + 2% LHB, 50% HS, n = 2) was 0.06 to 0.125 µg/mL. The MIC (MRSA ATCC 43300; Trek PS, MH + 2% LHB, no additive, n = 2) was 0.015 µg/mL, the MIC (MRSA ATCC 43300; Trek PS, MH + T80, 2% LS, n = 2) was 0.06 µg/mL and the MIC (MRSA ATCC 43300; Trek PS, MH + T80, 50% HS, n = 2) was 0.125 to 0.25 µg/mL. For the same compound, the MIC (MRSA ATCC 43300; Trek PS, MH, 2% LS, n = 2) was 0.03 to 0.06 µg/mL, the MIC (MRSA ATCC 43300; Trek PS, MH, 50% HS, n = 2) was 0.125 µg/mL (≈ 0.0712 µM) and the MIC (MRSA ATCC 43300; Trek flat PS plate, MHB +0.002% T80, no further additive, n = 2) was 0.03 to 0.06 µg/mL. The MIC (MRSA ATCC 43300; Trek flat PS plate, MHB −T80, no additive, n = 2) was 0.03 to 0.06 µg/mL, the “MIC” value (MRSA ATCC 43300; all 3 untreated PS plates, with and without added T80) was “around 0.06 µg/ml” and the MIC (S. pneumoniae ATCC 33440; Corning NBS, MHB +T80) was 0.125 µg/mL (≈ 0.0712 µM). The MIC (S. pneumoniae ATCC 33440; Corning NBS, MHB -T80) was 0.125 µg/mL (≈ 0.0712 µM), the MIC (S. pneumoniae ATCC 33440; Corning PS, MHB +T80) was 0.125 µg/mL (≈ 0.0712 µM) and the MIC (S. pneumoniae ATCC 33440; Corning PS, MHB -T80) was 0.5 to 4 µg/mL. The MIC (S. pneumoniae ATCC 33440; Corning TC, MHB +T80) was 0.25 µg/mL (≈ 0.142 µM), the MIC (S. pneumoniae ATCC 33440; Corning TC, MHB -T80) was 1 to 2 µg/mL and the MIC (E. faecalis ATCC 29212; Corning NBS, MHB +T80) was 0.06 µg/mL (≈ 0.0342 µM). It also gave an MIC (E. faecalis ATCC 29212; Corning NBS, MHB -T80) of 0.06 to 0.125 µg/mL, an MIC (E. faecalis ATCC 29212; Corning PS, MHB +T80) of 0.03 to 0.06 µg/mL and an MIC (E. faecalis ATCC 29212; Corning PS, MHB -T80) of 0.125 to 0.5 µg/mL. The MIC (E. faecalis ATCC 29212; Corning TC, MHB +T80) was 0.06 to 0.125 µg/mL, the MIC (E. faecalis ATCC 29212; Corning TC, MHB -T80) was 0.5 to 4 µg/mL and the MIC ([1]; Corning NBS, MHB +T80) was 0.125 µg/mL (≈ 0.0712 µM). It also gave an MIC ([1]; Corning NBS, MHB -T80) of 0.06 to 0.125 µg/mL, an MIC ([1]; Corning PS, MHB +T80) of 0.125 µg/mL (≈ 0.0712 µM) and an MIC ([1]; Corning PS, MHB -T80) of 0.125 to 0.5 µg/mL. The MIC ([1]; Corning TC, MHB +T80) was 0.25 µg/mL (≈ 0.142 µM), the MIC ([1]; Corning TC, MHB -T80) was 1 to 8 µg/mL and the MIC ([2]; Corning NBS, MHB +T80) was 0.06 to 0.125 µg/mL. For the same compound, the MIC ([2]; Corning NBS, MHB -T80) was 0.03 to 0.06 µg/mL, the MIC ([2]; Corning PS, MHB +T80) was 0.06 to 0.125 µg/mL and the MIC ([2]; Corning PS, MHB -T80) was 0.06 µg/mL (≈ 0.0342 µM). For the same compound, the MIC ([2]; Corning TC, MHB +T80) was 0.125 µg/mL (≈ 0.0712 µM), the MIC ([2]; Corning TC, MHB -T80) was 0.5 to 2 µg/mL and the MIC ([3]; Corning NBS, MHB +T80) was 0.125 to 0.25 µg/mL. It also gave an MIC ([3]; Corning NBS, MHB -T80) of 0.06 to 0.125 µg/mL, an MIC ([3]; Corning PS, MHB +T80) of 0.25 to 0.5 µg/mL and an MIC ([3]; Corning PS, MHB -T80) of 0.25 to 2 µg/mL. For the same compound, the MIC ([3]; Corning TC, MHB +T80) was 0.25 µg/mL (≈ 0.142 µM), the MIC ([3]; Corning TC, MHB -T80) was 0.5 to 2 µg/mL and the MIC (S. pyogenes ATCC 12344; Corning NBS, MHB +T80) was 3 to 15 ng/mL. The MIC (S. pyogenes ATCC 12344; Corning NBS, MHB -T80) was no more than 3 ng/mL, the MIC (S. pyogenes ATCC 12344; Corning PS, MHB -T80) was no more than 3 ng/mL and the MIC (S. pyogenes ATCC 12344; Corning TC, MHB +T80) was 7 to 15 ng/mL. For the same compound, the MIC (S. pyogenes ATCC 12344; Corning TC, MHB -T80) was no more than 3 ng/mL, the “MIC (literature)” value (MRSA) was 0.06 ([66], [67]) µg/ml and the half-life [4] was 8 h. For the same compound, the protein binding ([5]; literature values, reference given) was 90 to 93%.
In the case of oritavancin, the “concentration found, % of that expected” value ([6]; 1 µg/ml) is listed as less than 10%, the “concentration found, % of that expected” value ([6]; 4 µg/ml) is listed as 35% and the “concentration found, % of that expected” value ([6]; 16 µg/ml) is listed as “approximately 70%”. For the same compound, the “underestimation of MIC values in the absence of added polysorbate 80” value [6] was 16- to 32 fold, the half-life ([4]; in vivo) was 240 to 408 h and the protein binding [5] was 82 to 90%.
